{"source": "patent US20170176446A1", "about": "“Methods for Determining the Oncogenic Condition of Cell, Uses Thereof, and Methods for Treating Cancer” (INSERM (INSTITUT NATIONAL DE LA SANTE ET DE LA RECHERCHE …, priority 2009, published 2017)", "key": {"B-16-F10": {"system": "B-16-F10", "assay": "Inhibition of OCDO production by PBPE in B-16-F10", "format": "cell-based, murine", "conditions": "Mus musculus, B16-F10, 40 μM PBPE, 48 hours", "procedure": "(§1) An analogous experiment was reproduced with different cell lines, with the cells tested being incubated for 48 hours in a 40 μM solution of PBPE. It was noted that the OCDO was 100% inhibited for all the lines in the following table that were tested:\n(§2) Generally, in order to establish the percentages of OCDO inhibition from the thin-layer chromatography (TLC) plates obtained as in assay 2, the radioactive metabolites are identified and quantified on the basis of said plates using a europium-sensitive plate of GP Phosphor screen type (GE Healthcare) and a Storm 840 phosphorimagor (GE Healthcare). The proportion of radiolabeled oxysterols is determined on the autoradiogram obtained by densitometry using the Image Quant 5.2 software. The percentage is calculated on the basis of the ratio between the amount of oxysterols quantified divided by the sum of the amounts of oxysterols (CEE+CE+CT+OCDO). Since the CEE (CE ester) originates exclusively from the CE, the percentage CE is calculated on the basis of the ratio (CE+CEE)/(CE+CEE+CT+OCDO)."}, "P19": {"system": "P19", "assay": "Inhibition of OCDO production by PBPE in P19", "format": "cell-based, murine", "conditions": "Mus musculus, 40 μM PBPE, 48 hours", "procedure": "as §1, §2"}, "Saos-2": {"system": "Saos-2", "assay": "Inhibition of OCDO production by PBPE in Saos-2", "format": "cell-based", "conditions": "Homo sapiens, 40 μM PBPE, 48 hours", "procedure": "as §1, §2"}, "SH-N-SH": {"system": "SH-N-SH", "assay": "Inhibition of OCDO production by PBPE in SH-N-SH", "format": "cell-based", "conditions": "Homo sapiens, 48 h, read-out: Inhibition of OCDO production", "procedure": "as §1, §2"}, "A-549": {"system": "A-549", "assay": "Inhibition of OCDO production by PBPE in A-549", "format": "cell-based", "conditions": "Homo sapiens, A549, 40 μM PBPE, 48 hours", "procedure": "as §1, §2"}, "TS/A cells": {"system": "TS/A cells", "assay": "Tumor size of TS/A tumors implanted in BALB/c mice, intratumoral treatment", "format": "in vivo", "conditions": "PBPE 40 μM, 100 μl intratumorally once a day", "procedure": "A cell culture of TS/A cells was first performed. These TS/A cells are mouse mammary adenocarcinomas (see Nanni P et al., Clin. Exp. Metastasis, 1983 October-December; 1(4): 373-80). The cells are cultured, at 37° C. under 5% CO2, in a DMEM medium supplemented with 2 g/liter of sodium carbonate, 1.2 mM of glutamine (pH 7.4 at 23° C.), 5% of fetal bovine serum (Gibco) and 2.5 ml of antibiotics per liter of medium (penicillin/streptomycin).\nThe TS/A cells are recovered with trypsin, washed twice and suspended in PBS buffer. The TS/A cells (approximately 4×10^6 […] cells/0.1 ml) are then injected subcutaneously into the flank of 6-week-old female BALB/c mice (supplied by Charles River). […] The animals (10 mice per group) are monitored regularly for tumor development. The volume of the tumors is calculated according to the following formula: L×l^2×0.5 (L is the length and l is the width of the tumor). The experiment was reproduced twice. The results are given in FIG. 18 (the arrow indicates the beginning of the treatment)."}, "ChEH [1]": {"target": "T1, ChEH (Homo sapiens, UniProt Q15125)", "T1 construct": "MCF7 tumor cells, which originate from the American Tissue Culture Collection (ATCC), were used; host or cells: MCF7", "T1 sequence (Q15125 whole entry)": "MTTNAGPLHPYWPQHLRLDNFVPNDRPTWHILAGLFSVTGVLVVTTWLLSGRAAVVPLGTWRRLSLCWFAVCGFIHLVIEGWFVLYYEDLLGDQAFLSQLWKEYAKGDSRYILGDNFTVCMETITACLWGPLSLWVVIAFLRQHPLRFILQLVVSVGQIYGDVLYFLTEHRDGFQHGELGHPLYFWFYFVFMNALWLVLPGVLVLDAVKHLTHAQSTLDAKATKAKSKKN", "assay": "Inhibition of ChEH activity in MCF7 cells (TLC of [14C]CE conversion)", "format": "cell-based", "conditions": "tamoxifen 0.01-5 μM with [14C]CEα; PBPE 0.01-10 μM with [14C]CEβ", "procedure": "For this experiment, an aminoalkyl sterol included in French patent 2 838 741 (and also see: de Medina et al., J Med Chem: 2009, vol. 52, No. 23, p. 7765-7777), having the formula: 6-N-[2-(3H-imidazol-4-yl)ethylamino]cholestane-3β,5α-diol (DDA), was chosen. […]\nA thin-layer chromatography was carried out, the plate of which has been reproduced in FIG. 23. On this plate, the incubation is carried out, for lane 1, with [^14C]CE; for lane 2, with [^14C]CT; for lane 3, with the vehicle solvent, which is the same as that used for assays 1 to 5; for lane 4, with [14C]CE and 0.1 μM of the aminoalkyl sterol; and for lane 5, with [^14C]CE and a concentration of 1 μM of the aminoalkyl sterol."}, "ChEH [2]": {"target": "T2, ChEH (Rattus norvegicus, UniProt Q9JJ46)", "T2 construct": "150 μg of rat liver microsome proteins are incubated; from tissue; host or cells: rat liver microsomes", "T2 sequence (Q9JJ46 1-230)": "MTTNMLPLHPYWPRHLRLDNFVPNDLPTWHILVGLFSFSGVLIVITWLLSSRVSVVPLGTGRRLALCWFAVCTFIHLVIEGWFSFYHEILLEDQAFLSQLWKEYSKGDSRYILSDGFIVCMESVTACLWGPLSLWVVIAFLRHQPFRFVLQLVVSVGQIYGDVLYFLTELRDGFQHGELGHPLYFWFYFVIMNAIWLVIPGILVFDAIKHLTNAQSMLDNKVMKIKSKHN", "assay": "Determination of the Ki for ChEH on rat liver microsome proteins (Dixon method)", "format": "biochemical", "conditions": "150 μg rat liver microsome proteins, [14C]CEα"}, "OCDO": {"system": "OCDO", "assay": "OCDO content of TS/A tumors by GC/MS", "format": "in vivo, mice", "conditions": "PBPE 40 μM, 100 μl intratumorally once a day", "procedure": "5 volumes (relative to the mass removed) of buffer (50 mM Tris-HCl, 150 mM KCl, pH=7.4) are added. The tumors are ground and the homogenates are centrifuged for 5 minutes at 2500 rpm at 4° C. […] After centrifugation (to separate the phases), the organic phase is recovered. The organic phase is evaporated to dryness and then the residue is taken up with 0.5 ml of chloroform. The organic extracts are filtered on 0.5 ml silica cartridges. The polar sterols are eluted sequentially:\n1) 0.5 ml of a hexane/chloroform mixture (1/1), 2) 0.5 ml of chloroform, 3) 0.5 ml of ethyl acetate and methanol.\nThe ethyl acetate fractions are evaporated, silylated (50 μl 1/1 acetonitrile/BSTFA) and then analyzed by GC/MS (2 μl) according to the conditions described above."}, "HT-29": {"system": "HT-29", "assay": "Inhibition of OCDO production by PBPE in HT-29", "format": "cell-based", "conditions": "Homo sapiens, 40 μM PBPE, 48 hours", "procedure": "as §1, §2"}}}
{"smiles": "c1ccc(Cc2ccc(OCCN3CCCC3)cc2)cc1", "note": "[PBPE, N,N-pyrrolidino-[(4-benzyl)phenoxy]ethanamine]", "values": [{"measurement": "inhibition at 40 µM", "setting": "B-16-F10", "value": 100, "unit": "%"}, {"measurement": "inhibition at 40 µM", "setting": "P19", "value": 100, "unit": "%"}, {"measurement": "inhibition at 40 µM", "setting": "Saos-2", "value": 100, "unit": "%"}, {"measurement": "inhibition at 40 µM", "setting": "SH-N-SH", "value": 100, "unit": "%"}, {"measurement": "inhibition at 40 µM", "setting": "A-549", "value": 100, "unit": "%"}, {"measurement": "Tumor size (% control)", "setting": "TS/A cells; Day 28", "value": "71.6 ± 7", "unit": "% control"}, {"measurement": "Tumor size (% control)", "setting": "TS/A cells; Day 37", "value": "54.5 ± 8", "unit": "% control"}, {"measurement": "inhibition of the ChEH activity (3 days) in MCF7 cells", "setting": "ChEH [1]", "value": "Dose-dependent inhibition"}, {"measurement": "Ki", "setting": "ChEH [2]", "value": "26.8 ± 6", "unit": "nM"}, {"measurement": "OCDO (% control)", "setting": "OCDO; Day 28", "value": "22.5 ± 5", "unit": "% control"}, {"measurement": "OCDO (% control)", "setting": "OCDO; Day 37", "value": "9.6 ± 5", "unit": "% control"}, {"measurement": "inhibition at 40 µM", "setting": "HT-29", "value": 100, "unit": "%"}]}
